From patent US12037354B2, “Cyclic pantetheine derivatives and uses thereof” (VectivBio Comet AG, priority 2018, dated 2024)

Test system: primary culture of rat embryo mesencephalic cells (microglia, astrocytes and neurons)
Test: Neuroprotection against LPS damage (NO, TNF-α, IL-1β release, tyrosine hydroxylase positive neurons), Example 848
Assay type: cell-based
Conditions: 10 uM; for % reversion of NO release from neurons: after 5 days of LPS exposure
Experimental: Drug preparation. […] The stock solutions will be prepared 1000× the concentration in 100% DMSO. The final concentration of the vehicle (DMSO) is set at 0.1%.
Test animals. Pregnant Wistar rats (Janvier; France) are used for the study. They are group-housed and maintained in a room with controlled temperature (21-22° C.) and a reversed light-dark cycle (12 h/12 h; lights on: 17:30-05:30; lights off: 05:30-17:30) with food and water available ad libitum.
The protocol is performed in 3 independent cultures. For each culture, each condition is performed in sextuplicate.
Female rat of 15 days gestation is killed by cervical dislocation. Fetuses are removed from the uterus and their brains are harvested and placed in ice-cold medium (Leibovitz's L15 medium, Gibco). Only ventral mesencephalic flexure is used for the cell preparations. The midbrain is dissociated by trypsinization. The reaction is stopped, and the suspension is triturated and centrifuged. The pellet of dissociated cells is resuspended in culture medium consisted of DMEM-F12 (Gibco), containing 10% FBS (ATCC), 10% Horse serum (Gibco) and 2 mM L-glutamine (Gibco). Viable cells are counted and seeded on 96-well plates, precoated with poly-L-lysine. Cells are maintained in a humidified incubator at 37° C. in 5% CO2-95% air atmosphere. Half of the medium is changed on day 2 and day 5.
Treatment. On day 7, culture media are removed and replaced by new medium consisting of DMEM-F12 (Gibco) supplemented with 2% FBS (ATCC), 2% Horse serum (Gibco) and 2 mM L-glutamine (Gibco) and containing vehicle or test substances. After 1-hour exposure, LPS at 10 ng/ml is added and exposure further continued for 24 hours or 5 days period.
Inflammatory response measurement and neuronal death evaluation. NO production is measured in the media 24 h and 5 days after LPS exposure using the Griess reagent kit (Molecular Probes). The Griess reagent Assay is a colorimetric reaction assay which measures the conversion of a sulfanilic salt into an azo dye product by nitrite. Visible wavelength absorbance data is collected using a 96-well plate reader at 570 nm (Multiskan EX, Thermo Fisher, France).
IL-10 and TNF-α release are measured in the media 24 h after LPS exposure using the ELISA development kit (PeproTech). The ELISA plate, previously coated with anti-IL-10 or anti-TNF-α antibody at 1 μg/ml, is incubated 1 h with PBS containing 1% of BSA (bovine serum albumin). […] Visible wavelength absorbance data is collected using a 96-well plate reader at 405 nm with wavelength correction set at 650 nm (Multiskan EX, Thermo Fisher, France). […]
Statistical Analysis. The drug-induced effect on NO and cytokines is calculated by setting the response of the LPS-stimulated control as 100%. […]

## CC(=O)CC(=O)SCCNC(=O)CCNC(=O)[C@@H]1OP(=O)(O)OCC1(C)C [Compound 42]
After 5 days of LPS exposure (Example 949)
  % reversion of TH positive neurons: ≥15%
After 5 days of LPS exposure (Example 950)
  % reversion of TH positive neurons: ≥50%
Compared to LPS induction alone
  % reversion of NO release from neurons: ≥10%
LPS-induced NO release
  % reversion of NO release from neurons: ≥10%
